Experimental findings from US20230079045A1 (priority 2019, published 2023) are described below.

The subject of this assay is IFV A/PR/8/34. The assay is described as follows: cytopathic effect (CPE) antiviral test in MDCK cells, IFV A/PR/8/34. Format: cell-based, influenza virus. Particulars: unidentified influenza virus, PR/8, MDCK, 120 h, read-out: EC50(IFV A/PR/8/34). (In general: Damage to the host cells serves as the signal in cytopathic effect assays.)

Regarding `CC(=O)OCc1nnn(C(c2ccccc2)C2CCN(C(=O)c3cc(-c4nc5cc(NC(=O)[C@@H]6C[C@@H]6F)ccc5o4)ccn3)CC2)n1` (mixture of isomers) [Compound 199, (2-((R/S)-(1-(4-(5-((1S,2S)-2-fluorocyclopropane-1-carboxamido)benzo[d]oxazol-2-yl)picolinoyl)piperidin-4-yl)(phenyl)methyl)-2H-tetrazol-5-yl)methyl acetate], the EC50 was determined as 1.8 nM.

For the compound `COCc1nnn(C(c2ccccc2)C2CCN(C(=O)c3cc(-c4nc5cc(NC(=O)[C@@H]6C[C@@H]6F)ccc5o4)ccn3)CC2)n1` (mixture of isomers) [Compound 200, (1S,2S)-2-fluoro-N-(2-(2-(4-((R/S)-(5-(methoxymethyl)-2H-tetrazol-2-yl)(phenyl)methyl)piperidine-1-carbonyl)pyridin-4-yl)benzo[d]oxazol-5-yl)cyclopropane-1-carboxamide], the EC50 was determined as 2.1 nM.

As to `Cc1nnn(C(c2ccccc2)C2CC3CCC(C2)N3C(=O)c2cc(-c3nc4cc(NC(=O)[C@@H]5C[C@@H]5F)ccc4o3)ccn2)n1` (mixture of isomers) [Compound 208, (1S,2S)-2-fluoro-N-(2-(2-(3-((R/S)-(5-methyl-2H-tetrazol-2-yl)(phenyl)methyl)-8-azabicyclo[3.2.1]octane-8-carbonyl)pyridin-4-yl)benzo[d]oxazol-5-yl)cyclopropanecarboxamide], the EC50 is 6.9 nM.

Take `NCc1nnn(C(c2ccccc2)C2CCN(C(=O)c3cc(-c4nc5cc(NC(=O)[C@@H]6C[C@@H]6F)ccc5o4)ccn3)CC2)n1` (mixture of isomers) [Compound 210, (1S,2S)—N-(2-(2-(4-((R/S)-(5-(aminomethyl)-2H-tetrazol-2-yl)(phenyl)methyl)piperidine-1-carbonyl)pyridin-4-yl)benzo[d]oxazol-5-yl)-2-fluorocyclopropane-1-carboxamide]: the EC50 is 0.8 nM.

Regarding `CNCc1nnn(C(c2ccccc2)C2CCN(C(=O)c3cc(-c4nc5cc(NC(=O)[C@@H]6C[C@@H]6F)ccc5o4)ccn3)CC2)n1` (mixture of isomers) [Compound 211, (1S,2S)-2-fluoro-N-(2-(2-(4-((R/S)-(5-((methylamino)methyl)-2H-tetrazol-2-yl)(phenyl)methyl)piperidine-1-carbonyl)pyridin-4-yl)benzo[d]oxazol-5-yl)cyclopropane-1-carboxamide], the EC50 came out at 0.3 nM.

Regarding `O=C(Nc1ccc2oc(-c3ccnc(C(=O)N4CCN(C(c5ccccc5)c5nnn(CCO)n5)CC4)c3)nc2c1)[C@@H]1C[C@@H]1F` (mixture of isomers) [Compound 212, (1S,2S)-2-fluoro-N-(2-(2-(4-((R/S)-(2-(2-hydroxyethyl)-2H-tetrazol-5-yl)(phenyl)methyl)piperazine-1-carbonyl)pyridin-4-yl)benzo[d]oxazol-5-yl)cyclopropane-1-carboxamide], the EC50 worked out at 2.2 nM.

For `COCn1nnc(C(c2ccccc2)N2CCN(C(=O)c3cc(-c4nc5cc(NC(=O)[C@@H]6C[C@@H]6F)ccc5o4)ccn3)CC2)n1` (mixture of isomers) [Compound 214, (1S,2S)-2-fluoro-N-(2-(2-(4-((R/S)(2-(methoxymethyl)-2H-tetrazol-5-yl)(phenyl)methyl)piperazine-1-carbonyl)pyridin-4-yl)benzo[d]oxazol-5-yl)cyclopropane-1-carboxamide], the EC50 was found to be 1.9 nM.

For the compound `Cc1nnn(C(c2ccccc2)C2CCN(C(=O)c3nccc(-c4nc5cc(NC(=O)[C@@H]6C[C@@H]6F)ccc5o4)c3F)CC2)n1` (mixture of isomers) [Compound 219, (1S,2S)-2-fluoro-N-(2-(3-fluoro-2-(4-((R/S)-(5-methyl-2H-tetrazol-2-yl)(phenyl)methyl)piperidine-1-carbonyl)pyridin-4-yl)benzo[d]oxazol-5-yl)cyclopropanecarboxamide], the EC50 was found to be 1.9 nM.

`O=C(c1cc(-c2nc3cc(-c4ccns4)ccc3o2)ccn1)N1CCN(C(c2ccccc2)c2nnn(C(F)F)n2)CC1` (racemic) [Compound 115, (R/S)-(4-((2-(difluoromethyl)-2H-tetrazol-5-yl)(phenyl)methyl)piperazin-1-yl)(4-(5-(isothiazol-5-yl)benzo[d]oxazol-2-yl)pyridin-2-yl)methanone]: the EC50 is 64 nM.

As for `O=C(c1cc(-c2nc3ccc(NC(=O)C4(F)CC4)cc3o2)ccn1)N1CCN(C(c2ccccc2)c2nnn(C(F)F)n2)CC1` (racemic) [Compound 125, (R/S)—N-(2-(2-(4-((2-(difluoromethyl)-2H-tetrazol-5-yl)(phenyl)methyl)piperazine-1-carbonyl)pyridin-4-yl)benzo[d]oxazol-6-yl)-1-fluorocyclopropane-1-carboxamide], the EC50 was 12 nM.

For `Cn1cncc1-c1ccc2oc(-c3ccnc(C(=O)N4CCN(C(c5ccccc5)c5nnn(C(F)F)n5)CC4)c3)nc2c1` (racemic) [Compound 126, (R/S)-(4-((2-(difluoromethyl)-2H-tetrazol-5-yl)(phenyl)methyl)piperazin-1-yl)(4-(5-(1-methyl-1H-imidazol-5-yl)benzo[d]oxazol-2-yl)pyridin-2-yl)methanone], the EC50 is 1 nM.

For `CCn1cc(-c2ccc3oc(-c4ccnc(C(=O)N5CCN(C(c6ccccc6)c6nnn(C(F)F)n6)CC5)c4)nc3c2)cn1` (racemic) [Compound 127, (R/S)-(4-((2-(difluoromethyl)-2H-tetrazol-5-yl)(phenyl)methyl)piperazin-1-yl)(4-(5-(1-ethyl-1H-pyrazol-4-yl)benzo[d]oxazol-2-yl)pyridin-2-yl)methanone], the EC50 was found to be 4 nM.

Consider `O=C(c1cc(-c2nc3cc(NC(=O)C4(F)CC4)ccc3o2)ccn1)N1CCN(C(c2ccccc2)c2nnn(C(F)F)n2)CC1` (racemic) [Compound 129], for which the EC50 amounted to 12 nM.

Turning to `Cn1cc(-c2ccc3oc(-c4ccnc(C(=O)N5CCN(C(c6ccccc6)c6nnn(C(F)F)n6)CC5)c4)nc3c2)nn1` (racemic) [Compound 130, (R/S)-(4-((2-(difluoromethyl)-2H-tetrazol-5-yl)(phenyl)methyl)piperazin-1-yl)(4-(5-(1-methyl-1H-1,2,3-triazol-4-yl)benzo[d]oxazol-2-yl)pyridin-2-yl)methanone], the EC50 came out at 29 nM.

As for `Cn1nncc1-c1ccc2oc(-c3ccnc(C(=O)N4CCN(C(c5ccccc5)c5nnn(C(F)F)n5)CC4)c3)nc2c1` (racemic) [Compound 131, (R/S)-(4-((2-(difluoromethyl)-2H-tetrazol-5-yl)(phenyl)methyl)piperazin-1-yl)(4-(5-(1-methyl-1H-1,2,3-triazol-5-yl)benzo[d]oxazol-2-yl)pyridin-2-yl)methanone], the EC50 was determined as 12 nM.

Turning to `[2H]C([2H])([2H])C(C(=O)Nc1ccc2oc(-c3ccnc(C(=O)N4CCC(C(c5ccccc5)n5nnc(C)n5)CC4)c3)nc2c1)C([2H])([2H])[2H]` (racemic) [Compound 132, 3,3,3-trideuterio-N-[2-[2-[4-[(R/S)-(5-methyltetrazol-2-yl)-phenyl-methyl]piperidine-1-carbonyl]-4-pyridyl]-1,3-benzoxazol-5-yl]-2-(trideuteriomethyl)propanamide], the EC50 came out at 4 nM.

In the case of `Cc1nnn(C(c2ccccc2)C2CCN(C(=O)c3cc(-c4nc5cc(-c6cnn(C)c6)ccc5o4)ccn3)CC2)n1` (racemic) [Compound 133, (R/S)-(4-(5-(1-methyl-1H-pyrazol-4-yl)benzo[d]oxazol-2-yl)pyridin-2-yl)(4-((5-methyl-2H-tetrazol-2-yl)(phenyl)methyl)piperidin-1-yl)methanone], the EC50 stood at 33 nM.

With `Cc1nnn(C(c2ccccc2)C2CCN(C(=O)c3cc(-c4nc5cc(NC(=O)C(C)(C)F)ccc5o4)ccn3)CC2)n1` (racemic) [Compound 135, (R/S)-2-fluoro-2-methyl-N-(2-(2-(4-((5-methyl-2H-tetrazol-2-yl)(phenyl)methyl)piperidine-1-carbonyl)pyridin-4-yl)benzo[d]oxazol-5-yl)propanamide], the EC50 was 23 nM.

For the compound `[2H]C([2H])([2H])C(C(=O)Nc1ccc2oc(-c3ccnc(C(=O)N4CCC(C(c5ccccc5)n5nnc(C)n5)CC4)c3)cc2c1)C([2H])([2H])[2H]` (racemic) [Compound 137, 3,3,3-trideuterio-N-[2-[2-[4-[(R/S)-(5-methyltetrazol-2-yl)-phenyl-methyl]piperidine-1-carbonyl]-4-pyridyl]benzofuran-5-yl]-2-(trideuteriomethyl)propanamide], the EC50 amounted to 11 nM.

In the case of `Cc1nnn(C(c2ccccc2)C2CCN(C(=O)c3cc(-c4nc5cc(-c6cnsc6)ccc5o4)ccn3)CC2)n1` (racemic) [Compound 140, (R/S)-(4-(5-(isothiazol-4-yl)benzo[d]oxazol-2-yl)pyridin-2-yl)(4-((5-methyl-2H-tetrazol-2-yl)(phenyl)methyl)piperidin-1-yl)methanone], the EC50 stood at 4 nM.

Turning to `CC(C)(F)C(=O)Nc1ccc2oc(-c3ccnc(C(=O)N4CCN(C(c5ccccc5)c5nnn(C(F)F)n5)CC4)c3)cc2c1` (racemic) [Compound 141, (R/S)—N-(2-(2-(4-((2-(difluoromethyl)-2H-tetrazol-5-yl)(phenyl)methyl)piperazine-1-carbonyl)pyridin-4-yl)benzofuran-5-yl)-2-fluoro-2-methylpropanamide], the EC50 turned out to be 16 nM.

On to `Cc1nnn(C(c2ccccc2)C2CCN(C(=O)c3cc(-c4cc5cc(NC(=O)C(C)(C)F)ccc5o4)ccn3)CC2)n1` (racemic) [Compound 142, (R/S)-2-fluoro-2-methyl-N-(2-(2-(4-((5-methyl-2H-tetrazol-2-yl)(phenyl)methyl)piperidine-1-carbonyl)pyridin-4-yl)benzofuran-5-yl)propanamide], for which the EC50 stood at 23 nM.

For `O=C(c1cc(-c2cc3cc(NC(=O)C4(F)CC4)ccc3o2)ccn1)N1CCN(C(c2ccccc2)c2nnn(C(F)F)n2)CC1` (racemic) [Compound 143, (R/S)—N-(2-(2-(4-((2-(difluoromethyl)-2H-tetrazol-5-yl)(phenyl)methyl)piperazine-1-carbonyl)pyridin-4-yl)benzofuran-5-yl)-1-fluorocyclopropane-1-carboxamide], the EC50 was found to be 13 nM.

Regarding `Cc1nnn(C(c2ccccc2)C2CCN(C(=O)c3cc(-c4cc5cc(NC(=O)C6(F)CC6)ccc5o4)ccn3)CC2)n1` (racemic) [Compound 144], the EC50 amounted to 7 nM.
